Experimental data taken from the supplement of paper PMC10307832.

What was measured:
Experiment in all cases: relative viability (nuclei count vs DMSO), 5 days (fraction); higher = more cells survive
Doxorubicin + Pictilisib = compound: COc1cccc2c1C(=O)c1c(O)c3c(c(O)c1C2=O)C[C@@](O)(C(=O)CO)C[C@@H]3O[C@H]1C[C@H](N)[C@H](O)[C@H](C)O1 [Doxorubicin] + CS(=O)(=O)N1CCN(Cc2cc3nc(-c4cccc5[nH]ncc45)nc(N4CCOCC4)c3s2)CC1 [Pictilisib] (partner 1 µM)
In short: (§1)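 Each reported value is a median over duplicate plates. It expresses relative viability: treated-well nuclei count divided by vehicle-well nuclei count. Lung cancer cell lines in 1536-well plates were dosed by pin tool a day after seeding, alone with one drug or with a fixed anchor-drug dose plus five library-drug doses (not always all listed) in √10 steps, and nuclei were counted after 5 days.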

BAY61-3606 + Luminespib = compound: COC1=C(C=C(C=C1)C2=CC3=NC=CN3C(=N2)NC4=C(C=CC=N4)C(=O)N)OC [BAY61-3606] + CCNC(=O)c1noc(-c2cc(C(C)C)c(O)cc2O)c1-c1ccc(CN2CCOCC2)cc1 [Luminespib] (partner 0.01 µM)
In short: as §1

BAY61-3606 + Trametinib = compound: COC1=C(C=C(C=C1)C2=CC3=NC=CN3C(=N2)NC4=C(C=CC=N4)C(=O)N)OC [BAY61-3606] + CC(=O)Nc1cccc(-n2c(=O)n(C3CC3)c(=O)c3c(Nc4ccc(I)cc4F)n(C)c(=O)c(C)c32)c1 [Trametinib] (partner 0.02 µM)
In short: as §1

Doxorubicin + Olaparib = compound: COc1cccc2c1C(=O)c1c(O)c3c(c(O)c1C2=O)C[C@@](O)(C(=O)CO)C[C@@H]3O[C@H]1C[C@H](N)[C@H](O)[C@H](C)O1 [Doxorubicin] + O=C(c1cc(Cc2n[nH]c(=O)c3ccccc23)ccc1F)N1CCN(C(=O)C2CC2)CC1 [Olaparib] (partner 8 µM)
In short: as §1

Cell Line | relative viability (Doxorubicin + Pictilisib; first compound 0.003162 µM) | relative viability (Doxorubicin + Pictilisib; first compound 0.01 µM) | relative viability (Doxorubicin + Pictilisib; first compound 0.03162 µM) | relative viability (Doxorubicin + Pictilisib; first compound 0.1 µM) | relative viability (BAY61-3606 + Luminespib; first compound 0.02 µM) | relative viability (BAY61-3606 + Luminespib; first compound 0.06325 µM) | relative viability (BAY61-3606 + Luminespib; first compound 0.2 µM) | relative viability (BAY61-3606 + Luminespib; first compound 0.6325 µM) | relative viability (BAY61-3606 + Luminespib; first compound 2 µM) | relative viability (BAY61-3606 + Trametinib; first compound 0.02 µM) | relative viability (BAY61-3606 + Trametinib; first compound 0.06325 µM) | relative viability (BAY61-3606 + Trametinib; first compound 0.2 µM) | relative viability (BAY61-3606 + Trametinib; first compound 0.6325 µM) | relative viability (BAY61-3606 + Trametinib; first compound 2 µM) | relative viability (Doxorubicin + Olaparib; first compound 0.001 µM) | relative viability (Doxorubicin + Olaparib; first compound 0.003162 µM) | relative viability (Doxorubicin + Olaparib; first compound 0.01 µM) | relative viability (Doxorubicin + Olaparib; first compound 0.03162 µM) | relative viability (Doxorubicin + Olaparib; first compound 0.1 µM) | relative viability (Doxorubicin + Pictilisib; first compound 0.001 µM)
NCI-H647 | 0.38 | 0.46 | 0.279 | 0.1 | 0.205 | 0.16 | 0.21 | 0.221 | 0.0962 | 0.479 | 0.496 | 0.413 | 0.551 | 0.319 | 0.503 | 0.47 | 0.48 | 0.0818 | 0.124 | –
NCI-H650 | 0.886 | 0.867 | 0.734 | 0.711 | 0.925 | 0.751 | 0.766 | 0.927 | 0.652 | 1.09 | 1.05 | 0.922 | 0.93 | 0.838 | 0.418 | 0.494 | 0.38 | 0.334 | 0.296 | 0.989
NCI-H661 | 0.412 | 0.378 | 0.452 | 0.324 | 0.902 | 0.917 | 0.867 | 0.879 | 0.823 | 0.638 | 0.585 | 0.551 | 0.633 | 0.541 | 0.674 | 0.881 | 0.681 | 0.542 | 0.52 | 0.399
NCI-H727 | 0.342 | 0.353 | 0.391 | 0.356 | 0.334 | 0.364 | 0.266 | 0.328 | 0.331 | 0.392 | 0.382 | 0.423 | 0.42 | 0.387 | 0.821 | 0.811 | – | 0.768 | 0.753 | 0.334
NCI-H838 | 0.424 | 0.387 | 0.227 | 0.182 | 0.368 | 0.24 | 0.347 | 0.259 | 0.28 | 0.54 | 0.496 | 0.547 | 0.575 | 0.362 | 0.795 | 0.759 | 0.702 | 0.337 | 0.279 | 0.394
NCI-H1355 | 0.565 | 0.465 | 0.412 | 0.44 | 0.736 | 0.657 | 0.694 | 0.727 | 0.413 | 0.424 | 0.447 | 0.409 | 0.46 | 0.345 | 0.732 | 0.688 | 0.694 | 0.704 | 0.85 | 0.179
NCI-H1395 | 0.623 | 0.648 | 0.628 | 0.421 | 0.849 | 0.595 | 0.733 | 0.568 | 0.546 | 1.06 | 1.07 | 0.964 | 1.02 | 0.95 | 0.445 | 0.506 | 0.466 | 0.417 | 0.4 | 0.682
NCI-H1437 | 0.443 | 0.363 | 0.122 | 0.143 | 1.14 | 1.15 | 1 | 1.19 | 1.04 | 0.537 | 0.456 | 0.523 | 0.602 | 0.462 | 0.639 | 0.631 | 0.567 | 0.416 | 0.417 | 0.541
